Source: article PMC7049616 (Acta Pharmaceutica Sinica. B, 2019)

Assays:
TEL-PDGFRb-BaF3 = experiment: cells; conditions: 72 h
TEL-FGFR2-BaF3 = experiment: Anti-proliferation assay; format: cell-based; conditions: 72 h
TEL-cKIT-BaF3 = experiment: cells; conditions: 72 h
TEL-EPHA2-BaF3 = experiment: Anti-proliferation assay; format: cell-based; conditions: 72 h
TEL-FGFR4-BaF3 = experiment: Anti-proliferation assay; format: cell-based; conditions: 72 h
TEL-EPHA1-BaF3 = experiment: Anti-proliferation assay; format: cell-based; conditions: 72 h
[1] = Acute toxicity study, single oral dose, 7 days observation; format: in vivo, ICR mice; conditions: for toxicity observation in acute toxicity study: ICR mice; for Number of deaths (death/total): female ICR mice, 7 days
P210-BaF3 = experiment: Anti-proliferation assay; format: cell-based; conditions: 72 h
TEL-RET-BaF3 = experiment: cells; conditions: 72 h
TEL-VEGFR1-BaF3 = experiment: Anti-proliferation assay; format: cell-based; conditions: 72 h
TEL-FGFR1-BaF3 = experiment: cells; conditions: 72 h
TEL-CSF1R-BaF3 = experiment: Anti-proliferation assay; format: cell-based; conditions: 72 h
TEL-FGFR3-BaF3 = experiment: Anti-proliferation assay; format: cell-based; conditions: 72 h
TEL-BMX-BaF3 = experiment: Anti-proliferation assay; format: cell-based; conditions: 72 h
BaF3 = experiment: Anti-proliferation assay; format: cell-based; conditions: Mus musculus, BaF3, 72 h
Pharmacokinetics study = format: in vivo, Sprague–Dawley rats; conditions: male, Sprague-Dawley, rat, plasma
TEL-FLT3-BaF3 = experiment: cells; conditions: 72 h
TEL-PDGFRa-BaF3 = experiment: cells; conditions: 72 h
TEL-VEGFR3-BaF3 = experiment: Anti-proliferation assay; format: cell-based; conditions: 72 h
HUVEC cells = conditions: after 12 h

SMILES: CCN(CC)CCNC(=O)c1c(C)[nH]c(/C=C2\C(=O)Nc3ccc(F)cc32)c1C [Sunitinib]
- GI50 (TEL-PDGFRb-BaF3): < 1 nM
- GI50 (TEL-FGFR2-BaF3): 4 nM
- GI50 (TEL-cKIT-BaF3): 81 nM
- GI50 (TEL-EPHA2-BaF3): 1270 nM
- GI50 (TEL-FGFR4-BaF3): 2820 nM
- GI50 (TEL-EPHA1-BaF3): 3210 nM
- toxicity observation in acute toxicity study ([1]; single dose 500 mg/kg, recovered starting from day 4): apparent body weight loss
- toxicity observation in acute toxicity study ([1]; single dose 1000 mg/kg): unrecovered body weight loss
- toxicity observation in acute toxicity study ([1]; single dose 2000 mg/kg): mice death on day 3
- Number of deaths (death/total) ([1]; single oral dose 125 mg/kg): ♀: 0/2
- Number of deaths (death/total) ([1]; single oral dose 250 mg/kg): ♀: 0/2
- Number of deaths (death/total) ([1]; single oral dose 500 mg/kg): ♀: 0/2
- Number of deaths (death/total) ([1]; single oral dose 1000 mg/kg): ♀: 0/2
- Number of deaths (death/total) ([1]; single oral dose 2000 mg/kg): ♀: 2/2
- GI50 (P210-BaF3): 1460 nM
- GI50 (TEL-RET-BaF3): 110 nM
- GI50 (TEL-VEGFR1-BaF3): 350 nM
- GI50 (TEL-FGFR1-BaF3): 1680 nM
- GI50 (TEL-CSF1R-BaF3): 11 nM
- GI50 (TEL-FGFR3-BaF3): 370 nM
- GI50 (TEL-BMX-BaF3): 3020 nM
- GI50 (BaF3): 2560 nM
- AUC(0-inf) (Pharmacokinetics study; iv, 1 mg/kg): 145 ± 39.6 ng·h/mL
- AUC(0-t) (Pharmacokinetics study; iv, 1 mg/kg): 143 ± 40.3 ng·h/mL
- Cmax (Pharmacokinetics study; iv, 1 mg/kg): 236 ± 66.8 ng/mL
- MRT last (Pharmacokinetics study; iv, 1 mg/kg): 0.98 ± 0.04 h
- Tmax (Pharmacokinetics study; iv, 1 mg/kg): 0.33 h
- half-life (Pharmacokinetics study; iv, 1 mg/kg): 1.05 ± 0.34 h
- bioavailability (Pharmacokinetics study; oral, 10 mg/kg): 75.7%
- AUC(0-inf) (Pharmacokinetics study; po, 10 mg/kg): 1100 ± 96.7 ng·h/mL
- AUC(0-t) (Pharmacokinetics study; po, 10 mg/kg): 927 ± 108 ng·h/mL
- Cmax (Pharmacokinetics study; po, 10 mg/kg): 175 ± 21.7 ng/mL
- MRT last (Pharmacokinetics study; po, 10 mg/kg): 7.63 ± 0.3 h
- Tmax (Pharmacokinetics study; po, 10 mg/kg): 1.25 ± 1.06 h
- half-life (Pharmacokinetics study; po, 10 mg/kg): 1.38 ± 0.46 h
- GI50 (TEL-FLT3-BaF3): 32 nM
- GI50 (TEL-PDGFRa-BaF3): 1 nM
- GI50 (TEL-VEGFR3-BaF3): 570 nM
- HUVEC migration in wound-healing assay (HUVEC cells): less migrated HUVEC cells
